The source made the active and inactive calls. The calls are words filed in the database; no cut-off is given here.

In test [1] the test system is SH-SY5Y. Nature of the test: Growth inhibition of human SHSY5Y cells assessed as viable cells after 48 hrs by Trypan blue dye exclusion test. The format is functional, cell-based.
The subject of test [2] is SH-SY5Y. Nature of the test: Reduction of hydrogen peroxide-induced apoptotic cell death in human SHSY5Y cells after 12 hrs. The format is functional. Details: scale not given: the % may be the effect or the level left.
The subject of test [3] is SH-SY5Y. Nature of the test: Reduction of hydrogen peroxide-induced apoptotic cell death in human SHSY5Y cells assessed as DNA ladder formation after 12 hrs. Type of test: functional, cell-based.
Test [4] has as its system SH-SY5Y. Put plainly: Elevation of phosphorylated ERK level in hydrogen peroxide-treated human SHSY5Y cells at 30 uM after 3 hrs by Western blot analysis. Type of test: functional, cell-based. (Immunoblotting shows a protein as a band on a membrane.)
For test [5], the system named is SH-SY5Y. Put plainly: Elevation of phosphorylated p38 level in hydrogen peroxide-treated human SHSY5Y cells at 30 uM after 3 hrs by Western blot analysis. Type of test: functional, cell-based.
The test system of test [6] is SH-SY5Y. Put plainly: Elevation of phosphorylated JNk level in hydrogen peroxide-treated human SHSY5Y cells at 30 uM after 3 hrs by Western blot analysis. The format is functional, cell-based.

Turning to `COc1ccc(-c2cc(=O)c3c(O)c(OC)c(OC)c(OC)c3o2)cc1OC` [5-DEMETHYLNOBILETIN], in the test on SH-SY5Y [1], the IC50 is 32.5 µM.
In the test with SH-SY5Y [2], `COc1ccc(-c2cc(=O)c3c(OC)c(OC)c(OC)c(OC)c3o2)cc1OC` [NOBILETIN] had an Activity of 30%. Further, the outcome in the test with SH-SY5Y [3], with SH-SY5Y [4], with SH-SY5Y [5] and in the test with SH-SY5Y [6] was Active.
Consider `COc1ccc(-c2cc(=O)c3c(OC)c(OC)c(OC)c(OC)c3o2)cc1` [TANGERETIN], for which, in the test on SH-SY5Y [1], the IC50 was found to be 41.2 µM.

One may read the IC50 as the concentration at which inhibition is half-maximal.

Source of the values: ChEMBL document CHEMBL1145546, “Interactive effects of polymethoxy flavones from Citrus on cell growth inhibition in human neuroblastoma SH-SY5Y cells” (Bioorg Med Chem, 2008).
